Data set [1] addresses Chitotriosidase-1 (Homo sapiens, UniProt Q13231). Nature of the data set: Inhibition of full-length C-terminal his-tagged human CHIT1 expressed in CHOK1 cells assessed as reduction in chitinolytic activity using 4-methylumbelliferyl-beta-D-N,N',N\"-triacetylchitotrioside as substrate after 60 mins by fluorometric assay. It is filed as cell-based.
Data set [2] has as its target Voltage-gated inwardly rectifying potassium channel KCNH2 (Homo sapiens, UniProt Q12809). Put plainly: Displacement of Tracer Red from human ERG by fluorescence polarization assay.
Data set [3] deals with Acidic mammalian chitinase (Mus musculus, UniProt Q91XA9). Put plainly: Inhibition of full-length C-terminal his-tagged mouse acidic mammalian chitinase expressed in CHO-K1 cells assessed as reduction in chitinolytic activity using 4-methylumbelliferyl-beta-D-N,N'-diacetylchitobioside hydrate as substrate after 60 mins by fluorometric assay.
The target in data set [4] is Chitotriosidase-1 (Mus musculus, UniProt Q9D7Q1). Nature of the data set: Inhibition of full-length C-terminal his-tagged mouse CHIT1 expressed in CHO-K1 cells assessed as reduction in chitinolytic activity using 4-methylumbelliferyl-beta-D-N,N',N\"-triacetylchitotrioside as substrate after 60 mins by fluorometric assay. It is filed as cell-based.
The nature of data set [5]: Lipophilicity, logD of the compound at pH 7.4. Type of data set: physicochemical. As to conditions: buffer.
The target in data set [6] is dopamine transporter (DAT) (Homo sapiens, UniProt Q01959). Put plainly: Displacement of [3H]BTCP from recombinant human dopamine transporter at 10 uM after 120 mins by scintillation counting analysis relative to control. Type of data set: ADME. The note with it: probe [3H]BTCP.
In data set [7] the target is Acidic mammalian chitinase (Homo sapiens, UniProt Q9BZP6). Nature of the data set: Inhibition of full-length C-terminal his-tagged human acidic mammalian chitinase expressed in CHOK1 cells assessed as reduction in chitinolytic activity using 4-methylumbelliferyl-beta-D-N,N-diacetylchitobioside hydrate as substrate after 60 mins by fluorometric assay.
Chain of Acidic mammalian chitinase (Homo sapiens, UniProt Q9BZP6) (Q9BZP6 whole entry): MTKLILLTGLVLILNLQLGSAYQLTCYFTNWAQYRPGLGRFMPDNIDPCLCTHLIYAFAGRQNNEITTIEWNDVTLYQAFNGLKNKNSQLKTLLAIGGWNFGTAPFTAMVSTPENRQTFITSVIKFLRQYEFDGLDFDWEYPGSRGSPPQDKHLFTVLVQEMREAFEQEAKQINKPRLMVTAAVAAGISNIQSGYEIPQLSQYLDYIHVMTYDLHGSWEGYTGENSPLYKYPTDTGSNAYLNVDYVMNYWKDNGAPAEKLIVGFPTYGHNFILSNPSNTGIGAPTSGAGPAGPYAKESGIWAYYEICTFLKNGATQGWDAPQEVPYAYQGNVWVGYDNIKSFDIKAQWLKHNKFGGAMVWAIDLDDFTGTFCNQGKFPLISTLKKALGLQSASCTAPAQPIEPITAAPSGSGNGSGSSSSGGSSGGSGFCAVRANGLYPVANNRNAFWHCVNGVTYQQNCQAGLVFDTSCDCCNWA

Chain of Voltage-gated inwardly rectifying potassium channel KCNH2 (Q12809 whole entry): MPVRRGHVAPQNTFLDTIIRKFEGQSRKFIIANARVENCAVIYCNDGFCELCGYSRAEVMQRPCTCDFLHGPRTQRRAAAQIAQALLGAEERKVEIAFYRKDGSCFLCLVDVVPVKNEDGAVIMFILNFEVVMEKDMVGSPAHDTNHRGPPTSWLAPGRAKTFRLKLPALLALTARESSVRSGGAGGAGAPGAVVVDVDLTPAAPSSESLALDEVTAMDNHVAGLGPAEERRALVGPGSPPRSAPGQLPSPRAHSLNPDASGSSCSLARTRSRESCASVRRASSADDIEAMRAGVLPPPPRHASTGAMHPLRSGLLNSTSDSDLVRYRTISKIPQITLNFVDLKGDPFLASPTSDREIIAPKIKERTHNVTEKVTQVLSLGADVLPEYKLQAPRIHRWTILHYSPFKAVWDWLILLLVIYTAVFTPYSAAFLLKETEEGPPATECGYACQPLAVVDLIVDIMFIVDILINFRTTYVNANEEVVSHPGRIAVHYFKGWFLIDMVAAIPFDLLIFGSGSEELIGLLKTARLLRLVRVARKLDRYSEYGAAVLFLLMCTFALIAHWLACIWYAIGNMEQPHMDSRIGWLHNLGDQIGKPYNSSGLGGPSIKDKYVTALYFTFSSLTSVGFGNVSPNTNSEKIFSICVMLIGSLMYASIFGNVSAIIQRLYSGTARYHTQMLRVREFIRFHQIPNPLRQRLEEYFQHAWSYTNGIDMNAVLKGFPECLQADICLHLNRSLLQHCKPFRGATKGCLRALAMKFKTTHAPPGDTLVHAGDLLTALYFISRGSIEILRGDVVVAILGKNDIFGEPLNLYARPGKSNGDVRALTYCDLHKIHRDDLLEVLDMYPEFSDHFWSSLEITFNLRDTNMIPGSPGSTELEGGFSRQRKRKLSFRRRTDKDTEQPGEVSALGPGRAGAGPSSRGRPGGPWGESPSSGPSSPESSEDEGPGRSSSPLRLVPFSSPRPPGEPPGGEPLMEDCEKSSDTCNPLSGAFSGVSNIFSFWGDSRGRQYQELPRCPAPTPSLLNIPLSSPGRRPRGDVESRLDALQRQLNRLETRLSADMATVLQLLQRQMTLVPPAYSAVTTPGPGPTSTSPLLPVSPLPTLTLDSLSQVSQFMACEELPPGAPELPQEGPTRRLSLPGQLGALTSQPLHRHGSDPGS
Chain of Acidic mammalian chitinase (Mus musculus, UniProt Q91XA9) (Q91XA9 whole entry): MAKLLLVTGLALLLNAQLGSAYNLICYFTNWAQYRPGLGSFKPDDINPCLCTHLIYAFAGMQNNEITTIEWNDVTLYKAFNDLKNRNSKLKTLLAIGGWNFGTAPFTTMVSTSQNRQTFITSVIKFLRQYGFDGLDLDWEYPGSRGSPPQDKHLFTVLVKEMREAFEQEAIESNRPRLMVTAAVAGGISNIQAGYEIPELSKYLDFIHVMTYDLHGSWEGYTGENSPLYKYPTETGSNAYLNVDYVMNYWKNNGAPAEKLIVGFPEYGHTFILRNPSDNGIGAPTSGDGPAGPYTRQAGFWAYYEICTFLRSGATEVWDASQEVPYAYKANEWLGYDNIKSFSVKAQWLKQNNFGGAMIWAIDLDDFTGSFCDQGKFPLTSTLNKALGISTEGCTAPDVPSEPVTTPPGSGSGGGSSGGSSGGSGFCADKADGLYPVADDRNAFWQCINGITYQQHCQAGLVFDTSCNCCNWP
Chain of dopamine transporter (DAT) (Q01959 whole entry): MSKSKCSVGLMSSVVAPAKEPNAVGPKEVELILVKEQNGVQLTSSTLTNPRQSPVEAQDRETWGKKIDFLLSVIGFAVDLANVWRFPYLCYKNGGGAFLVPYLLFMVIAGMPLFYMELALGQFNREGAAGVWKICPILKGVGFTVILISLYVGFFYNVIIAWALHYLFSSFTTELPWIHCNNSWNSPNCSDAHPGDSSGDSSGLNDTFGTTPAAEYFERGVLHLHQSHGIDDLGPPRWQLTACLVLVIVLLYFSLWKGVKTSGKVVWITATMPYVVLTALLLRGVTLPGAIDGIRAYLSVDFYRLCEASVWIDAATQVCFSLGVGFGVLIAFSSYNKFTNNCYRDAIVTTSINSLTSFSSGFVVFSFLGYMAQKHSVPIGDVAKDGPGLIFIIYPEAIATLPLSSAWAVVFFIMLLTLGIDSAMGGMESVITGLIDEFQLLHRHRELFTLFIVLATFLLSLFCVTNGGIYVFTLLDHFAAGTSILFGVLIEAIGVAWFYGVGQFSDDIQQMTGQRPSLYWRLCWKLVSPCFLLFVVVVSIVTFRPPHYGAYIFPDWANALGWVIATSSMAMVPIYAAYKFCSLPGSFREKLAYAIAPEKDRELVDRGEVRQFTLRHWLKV
Chain of Chitotriosidase-1 (Homo sapiens, UniProt Q13231) (Q13231 whole entry): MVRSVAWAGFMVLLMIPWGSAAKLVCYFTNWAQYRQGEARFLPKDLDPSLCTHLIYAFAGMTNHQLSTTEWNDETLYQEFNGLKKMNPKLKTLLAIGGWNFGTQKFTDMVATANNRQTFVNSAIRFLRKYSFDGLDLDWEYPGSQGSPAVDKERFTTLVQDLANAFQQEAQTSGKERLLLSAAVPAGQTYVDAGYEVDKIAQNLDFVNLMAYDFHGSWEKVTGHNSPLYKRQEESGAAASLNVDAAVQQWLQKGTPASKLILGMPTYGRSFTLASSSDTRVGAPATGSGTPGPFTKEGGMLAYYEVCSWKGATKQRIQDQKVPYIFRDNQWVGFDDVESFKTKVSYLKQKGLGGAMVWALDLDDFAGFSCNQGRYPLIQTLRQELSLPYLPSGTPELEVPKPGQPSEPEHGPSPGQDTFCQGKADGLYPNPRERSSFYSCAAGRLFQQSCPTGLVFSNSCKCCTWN
Chain of Chitotriosidase-1 (Mus musculus, UniProt Q9D7Q1) (Q9D7Q1 whole entry): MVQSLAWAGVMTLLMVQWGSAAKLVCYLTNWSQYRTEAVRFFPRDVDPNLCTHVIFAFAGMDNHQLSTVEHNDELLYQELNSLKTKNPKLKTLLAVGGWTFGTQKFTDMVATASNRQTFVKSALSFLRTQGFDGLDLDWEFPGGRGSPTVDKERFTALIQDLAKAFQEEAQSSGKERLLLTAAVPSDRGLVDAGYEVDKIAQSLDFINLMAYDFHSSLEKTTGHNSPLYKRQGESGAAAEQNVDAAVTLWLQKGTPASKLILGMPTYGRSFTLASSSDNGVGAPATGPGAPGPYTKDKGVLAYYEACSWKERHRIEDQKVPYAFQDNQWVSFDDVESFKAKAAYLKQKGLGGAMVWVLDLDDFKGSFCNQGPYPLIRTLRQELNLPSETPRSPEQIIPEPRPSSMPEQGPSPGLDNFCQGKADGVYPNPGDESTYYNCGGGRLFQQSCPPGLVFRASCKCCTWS

As for `Nc1n[nH]c(N2CCC(N(CCc3ccc(Cl)cc3)C3COC3)CC2)n1`, the IC50 was determined as 180 nM at Chitotriosidase-1 [1], 4400 nM in data set [2], 27 nM in data set [3] and 5500 nM on Chitotriosidase-1 [4].
As to `Nc1n[nH]c(N2CCC(N3CCCC(c4ccc(Cl)cc4)C3)CC2)n1` (configuration not stated), the IC50 at Chitotriosidase-1 [1] was 1850 nM; in data set [3], 335 nM; on Chitotriosidase-1 [4], 19000 nM.
Take `CO[C@H](C)CN(CCc1ccc(Cl)cc1)C1CCN(c2nc(N)n[nH]2)CC1`: the IC50 on Chitotriosidase-1 [1] worked out at 530 nM; in data set [2], 6400 nM; in data set [3], 110 nM; at Chitotriosidase-1 [4], 12500 nM.
Consider `Nc1nnc(N2CCC(N3C[C@@H](O)C[C@@H]3Cc3ccc(Cl)cc3)CC2)[nH]1`, for which the 50% inhibitory concentration (IC50) was determined as 13200 nM in data set [2], 170 nM in data set [3] and 520 nM at Chitotriosidase-1 [4]. Also, the logD in data set [5] is 0.81.
Regarding `CC(C)(O)CN(CCc1ccc(Cl)cc1)C1CCN(c2nc(N)n[nH]2)CC1`, the IC50 on Chitotriosidase-1 [1] amounted to 395 nM; in data set [2] it was 19000 nM; in data set [3], 73 nM; on Chitotriosidase-1 [4], 4700 nM.
Turning to `CNS(=O)(=O)CCN(CCc1ccc(Cl)cc1)C1CCN(c2nc(N)n[nH]2)CC1`, the results for the IC50 (at Chitotriosidase-1 [1]; in data set [3]; on Chitotriosidase-1 [4]) were 870 nM, 21 nM and 7550 nM, respectively. Besides, in data set [6], the inhibition at 2 h, 10 µM came out at 13%.
For `CS(=O)(=O)NCCN(CCc1ccc(Cl)cc1)C1CCN(c2nc(N)n[nH]2)CC1`, the IC50 at Chitotriosidase-1 [1] is 1200 nM; in data set [2] it was 7200 nM; in data set [3], 22 nM; on Chitotriosidase-1 [4], 12500 nM. For the same molecule, the inhibition at 2 h, 10 µM in data set [6] was 4%.
For the molecule `C[C@@H](O)CN(CCc1ccc(Cl)cc1)C1CCN(c2nc(N)n[nH]2)CC1`, the IC50 on Chitotriosidase-1 [1] is 330 nM; in data set [2] it was 6100 nM; at Chitotriosidase-1 [4], 6800 nM.
Take `Nc1n[nH]c(N2CCC(N(CCc3ccc(Cl)cc3)CC3CCCCO3)CC2)n1` (configuration not stated): the IC50 is 21 nM on Chitotriosidase-1 [1], 11000 nM in data set [2], 56 nM in data set [3] and 750 nM at Chitotriosidase-1 [4]. Also, in data set [6], the inhibition at 2 h, 10 µM was found to be 50%.
On to `C[C@H](O)CN(CCc1ccc(Cl)cc1)C1CCN(c2nc(N)n[nH]2)CC1`, for which the values for the half-inhibitory concentration (IC50) (at Chitotriosidase-1 [1]; in data set [2]; at Chitotriosidase-1 [4]) were 145 nM, 14000 nM and 2350 nM, respectively.
For `CO[C@H]1CN(C2CCN(c3nnc(N)[nH]3)CC2)[C@H]1Cc1ccc(Cl)cc1`, the IC50 came to 580 nM at Chitotriosidase-1 [1], 340 nM in data set [2], 485 nM in data set [3] and 5550 nM at Chitotriosidase-1 [4]. Also, in data set [5], the logD is 1.55.
In the case of `CO[C@@H]1C[C@H](Cc2ccc(Cl)cc2)N(C2CCN(c3n[nH]c(N)n3)CC2)C1`, the IC50 on Chitotriosidase-1 [1] was 44 nM; in data set [3] it was 21 nM; at Chitotriosidase-1 [4], 255 nM. In data set [5], this molecule came in with a logD of 1.56.
With `CC(=O)NCCN(CCc1ccc(Cl)cc1)C1CCN(c2nc(N)n[nH]2)CC1`, the IC50 was 495 nM on Chitotriosidase-1 [1], 3300 nM in data set [2], 35 nM in data set [3] and 8100 nM at Chitotriosidase-1 [4].
On to `CO[C@@H](C)CN(CCc1ccc(Cl)cc1)C1CCN(c2nc(N)n[nH]2)CC1`, for which the IC50 on Chitotriosidase-1 [1] is 44 nM; in data set [2], 17600 nM; in data set [3], 53 nM; at Chitotriosidase-1 [4], 1150 nM. The inhibition at 2 h, 10 µM in data set [6] was 33%.
Consider `COCCN(CCc1ccc(Cl)cc1)C1CCN(c2nc(N)n[nH]2)CC1`, for which the IC50 at Chitotriosidase-1 [1] worked out at 84 nM; in data set [2] it was 2800 nM; in data set [3] it was 55 nM; on Chitotriosidase-1 [4], 1700 nM.
`CNC(=O)CN(CCc1ccc(Cl)cc1)C1CCN(c2nc(N)n[nH]2)CC1`: the IC50 worked out at 1800 nM on Chitotriosidase-1 [1], 2600 nM in data set [2], 1150 nM in data set [3] and 48000 nM on Chitotriosidase-1 [4].
In the case of `CO[C@H]1C[C@H](Cc2ccc(Cl)cc2)N(C2CCN(c3nnc(N)[nH]3)CC2)C1`, the values for the IC50 (at Chitotriosidase-1 [1]; in data set [3]; at Chitotriosidase-1 [4]) were 47 nM, 65 nM and 345 nM, respectively. Further, the logD in data set [5] was found to be 1.6. In addition, the inhibition at 2 h, 10 µM in data set [6] is 59%.
For `Nc1n[nH]c(N2CCC(N(CCc3ccc(Cl)cc3)CC3CCCO3)CC2)n1` (configuration not stated), the IC50 at Chitotriosidase-1 [1] was 27 nM; in data set [2], 15000 nM; in data set [3] it was 17 nM; at Chitotriosidase-1 [4] it was 1080 nM. Besides, the inhibition at 2 h, 10 µM in data set [6] was found to be 74%.
With `Nc1n[nH]c(N2CCC(N(CCc3ccc(Cl)cc3)CC(=O)O)CC2)n1`, the IC50 on Chitotriosidase-1 [1] was found to be 1900 nM; in data set [2] it was 8000 nM; in data set [3], 395 nM; at Chitotriosidase-1 [4] it was 21000 nM.
For the molecule `COC(C)(C)CN(CCc1ccc(Cl)cc1)C1CCN(c2nc(N)n[nH]2)CC1`, the IC50 stood at 505 nM on Chitotriosidase-1 [1], 3500 nM in data set [2] and 3650 nM at Chitotriosidase-1 [4].
Turning to `Nc1nc(N2CCC(N3C[C@H](O)C[C@@H]3Cc3ccc(Cl)cc3)CC2)n[nH]1`, the IC50 in data set [2] was determined as 55000 nM; in data set [3], 68 nM; on Chitotriosidase-1 [4], 135 nM. In data set [5], this molecule came in with a logD of 0.68.
Turning to `CNC(=O)NCCN(CCc1ccc(Cl)cc1)C1CCN(c2nc(N)n[nH]2)CC1`, the IC50 at Chitotriosidase-1 [1] was found to be 1430 nM; in data set [2], 1800 nM; in data set [3], 130 nM; at Chitotriosidase-1 [4], 9100 nM.
For the molecule `Nc1n[nH]c(N2CCC(N(CCO)CCc3ccc(Cl)cc3)CC2)n1`, the IC50 on Chitotriosidase-1 [1] turned out to be 384 nM; in data set [2], 6300 nM; in data set [3] it was 135 nM; at Chitotriosidase-1 [4], 4800 nM.
With `Nc1nnc(N2CCC(N3CCCC[C@@H]3Cc3ccc(Cl)cc3)CC2)[nH]1`, the IC50 on Chitotriosidase-1 [1] came out at 41 nM; in data set [2], 8300 nM; in data set [3], 81 nM; at Chitotriosidase-1 [4] it was 87 nM; in data set [7] it was 23 nM. The logD in data set [5] stood at 1.41.
In the case of `Nc1n[nH]c(N2CCC(N3CCC(c4ccc(Cl)cc4)C3)CC2)n1` (configuration not stated), the values for the IC50 (on Chitotriosidase-1 [1]; in data set [3]; at Chitotriosidase-1 [4]) were 19500 nM, 2600 nM and 37000 nM, respectively.
As for `Nc1nnc(N2CCC(N3CCC[C@@H]3Cc3ccc(Cl)cc3)CC2)[nH]1`, the half-maximal inhibitory concentration (IC50) in data set [2] was found to be 4000 nM; in data set [3] it was 120 nM; at Chitotriosidase-1 [4] it was 430 nM. In data set [5], this molecule displayed a logD of 1.15.

For the origin of these results see ChEMBL document CHEMBL4311945, “Development of Dual Chitinase Inhibitors as Potential New Treatment for Respiratory System Diseases” (J Med Chem, 2019).
